Measurements as given in patent US10590392B2, “Generation of airway epithelial organoids from human pluripotent stem cells” (TRUSTEES OF BOSTON UNIVERSITY, priority 2017, dated 2020).
“Also recorded” adds a separate entry of the source.

Legend:
[1] = tested on: iPSC-derived anterior foregut endoderm cells; experiment: Lung specification from anterior foregut endoderm with or without CHIR (NKX2-1GFP flow cytometry, 7XTCF-mCherry reporter); format: cell-based, human
[2] = tested on: iPSC-derived NKX2-1GFP+ lung progenitors; experiment: Post-specification patterning of hPSC-derived lung progenitors, treatment day 15 to 19, RT-qPCR/flow cytometry of NKX2-1GFP+ cells; format: cell-based, human
Experimental: Measurement of mRNA expression by reverse transcriptase quantitative real time PCR (RT-qPCR) was performed as previously described(Longmire et al., 2012). Briefly, RNA was extracted from cells using a QIAzol Lysis Reagent (Qiagen, Venlo, Netherlands) and 150 ng of RNA was transcribed to cDNA using reverse transcription reagents (Applied Biosystems). Real time PCR (qPCR) was performed using TaqMan Fast Universal PCR Master Mix (ThermoFisher) and TaqMan (Applied Biosystems) reagents. The cDNA was diluted 1:3 and 2 μL of cDNA was added to each 25 μL (for Applied Biosystems StepOne 96-well System) or 12.5 μL (for Applied Biosystems QuantStudio7 384-well system) qPCR reaction. Each sample was run in technical triplicates and cycle (Ct) values were averaged between triplicates for analysis. Relative gene expression, normalized to 18S control, was calculated as fold change in 18S-normalized gene expression, compared to baseline, using the 2^(−ΔΔCT) method. Baseline, defined as fold change=1, was set to undifferentiated iPSC levels, or if undetected, a cycle number of 40 was assigned to allow fold change calculations. Adult lung control RNA was extracted from a normal lung biopsy sample. Primers were all TaqMan probes purchased from Applied Biosystems. Specifics of primers used are detailed in Table 1.
Day 14-16 cells from the lung progenitor directed differentiation protocol were harvested with 0.05% Trypsin-EDTA (Invitrogen) and replated in clumps in either Matrigel-coated tissue culture dishes in two-dimensional culture or in three-dimensional Matrigel drops. Matrigel drops were formed by resuspending cell clumps directly in undiluted Matrigel matrix, pipetting 50-100 μL into each well, and allowing the Matrigel/cell mixture to gel for 30 minutes at 37° C. Cell drops were then covered completely with growth medium.
Post-specification culture conditions were determined by the addition of growth factors to cSFDM. For patterning experiments, growth factors were added to a base media containing 10 ng/mL rhFGF10 (“Base”) and additional factors detailed in the results text. For concentrations of growth factors required for each experiment, see Table 2. Cells were additionally cultured with 10 μM Y-27632 (Tocris) for 24 hours after replating. Doses of growth factors were determined based on previously published directed differentiation protocols (Huang et al., 2013; Kurmann et al., 2015; Longmire et al., 2012) as well as dose-response experiments using 7XTCF lentiviral reporters for CHIR99021 (Figure S2d-e). […]
To test whether the inventors could efficiently induce a proximal vs distal program in iPSC-derived lung progenitors, the inventors modulated key developmental pathways beginning on day 15 of differentiation in our model system (FIG. 1C-1E), and monitored changes in SOX2 and SOX9 expression that are due to coordinated proximal vs distal patterning changes in purified NKX2-1^GFP+ cells within 4 days of treatment. At day 15, post-lung specification, the inventors cultured cells in a base media of “low dose” (10 ng/mL) FGF10 to promote proliferation without strongly inducing patterning(Volckaert et al., 2013). From this base media, the inventors stimulated the following pathways: Wnt signaling via the potent GSK3β inhibitor CHIR99021, hereafter CHIR; FGF signaling using FGF2 or high dose (100 ng/mL) FGF10; BMP signaling using BMP4; and TGFβ signaling using TGFβ

[3] = tested on: 7XTCF-mCherry Wnt reporter in FG293 cells; experiment: Lentiviral 7XTCF-mCherry Wnt reporter dose-response in FG293 cells; details: 3 μM CHIR
[4] = NKX2-1GFP+ sorted cells on day 19 after treatment day 15-19, vs base media (10 ng/mL FGF10), RT-qPCR
[5] = in response to CHIR withdrawal day 15-19, within 4 days

Cc1c[nH]c(-c2cnc(NCCNc3ccc(C#N)cn3)nc2-c2ccc(Cl)cc2Cl)n1 [CHIR, CHIR99021]
rescue of NKX2-1GFP expression by later addition ([1]; cells differentiated without CHIR to day 15): could not be rescued | NKX2-1GFP expression during lung specification ([1]; presence of CHIR vs without, as early as 48 h after initiation of specification, maintained until at least day 15): significantly higher levels | 7TC (7XTCF-mCherry) reporter expression ([1]; specification media with CHIR vs vehicle alone, normalized to Ef1aL-mCherry): rapid upregulation | expression of Wnt signaling responsive genes LEF1, NKD1, AXIN2 ([2]; CHIR withdrawal day 15-19, day 19): reduced expression | lentiviral TCF-driven reporter (7XTCF-mCherry) expression ([2]; CHIR withdrawal day 15-19, day 19, NKX2-1+ cells): reduced | SCGB3A2 mRNA expression [2, 4]: decreased expression | SOX2 mRNA expression [2, 4]: significantly decreased | SOX9 mRNA expression [2, 4]: increased | expression of distal markers SOX9 and ETV5 [2, 5]: downregulated; also recorded: decreased expression | expression of proximal airway markers (SCGB3A2, TP63/P63, MUC5AC) [2, 5]: upregulated; also recorded: significantly increased expression | percentage of NKX2-1GFP+ cells by day 19 ([2]; withdrawal of CHIR from day 15 to 19, flow cytometry): significantly decreased percentage | Wnt activation (lentiviral TCF reporter) [3]: induce Wnt activation | cytotoxicity [3]: without significant cytotoxicity
